Structures can show the parent of a compound that is named as a salt.
Columns and labels:
[1] = Residual water content by Karl Fischer titration (KFT); type: physicochemical
Excerpt: Using conditions similar to those previously reported (Li et al., 2014, supra; […], et al., European journal of pharmaceutical sciences: official journal of the European Federation for Pharmaceutical Sciences. Jul. 16, 2013; 49(4):699-711; […], et al., International journal of nanomedicine. 2013; 8:275-293), the residual water content of all SD powders were quantified analytically by Karl Fischer titration (KFT) coulometrically using a TitroLine 7500 trace titrator (SI Analytics, Germany). Approximately 2-10 mg of powder was added to the titration cell containing Hydranal® Coulomat AD reagent. The residual water content was measured at the end of titration.

[2] = Laser diffraction particle size analysis; type: physicochemical; settings: laser sizing, n = 3
Experimental: The laser diffraction particle size analysis was performed on raw Fas and all co-SD samples.

Q: With `O=S(=O)(c1cccc2cnccc12)N1CCCNCC1` [Raw Fas, Fasudil monohydrochloride hemihydrate salt] as the compound, how does the “Residual Water content” value ([1]; n = 3) read?
A: 2.97 ± 0.06 % w/w

Q: And the “Residual Water content” value ([1]; n = 3, listed as raw Fas)?
A: 2.97 % w/w

Q: And the DV90 [2]?
A: 7.42 ± 0.19 μm

Q: What about the Dv10 [2] of the same compound?
A: 3.67 ± 0.32 μm

Q: And the Dv50 [2]?
A: about 5 μm

Q: What about the “Span Value” [2] of the same compound?
A: 0.765 ± 0.15

Q: And the Dv50 ([2]; listed as Raw FH)?
A: 4.96 ± 3.5 μm

Source: patent publication US11878023B2, “Compositions and methods for delivering pharmaceutical agents” (Arizona Board of Regents on Behalf of the University of …, priority 2017, dated 2024)
